Earlier results on one compound are cited in patent US7037523B2, “Controlled release compositions for macrolide antimicrobial agents” (Wockhardt Limited, priority 2001, dated 2006).

For series [1] the following is noted: normal gastric pH of 1.0–2.0.

As to `CC[C@H]1OC(=O)[C@H](C)[C@@H](O[C@H]2C[C@@](C)(OC)[C@@H](O)[C@H](C)O2)[C@H](C)[C@@H](O[C@@H]2O[C@H](C)C[C@H](N(C)C)[C@H]2O)[C@](C)(OC)C[C@@H](C)C(=O)[C@H](C)[C@@H](O)[C@]1(C)O` [Clarithromycin], the solubility in water entry is reported as “practically insoluble”. Further, in series [1], the “degradation in acidic medium” value is given as “degrades rapidly”.
